As a reminder, the IC50 is the concentration that inhibits the measured activity by half.

Experimental findings from patent US8481536B2, “Benzotriazine inhibitors of kinases” (TargeGen, Inc., priority 2004, dated 2013) are described below.

Recombinant human c-Src, sequence (P12931 whole entry, looked up): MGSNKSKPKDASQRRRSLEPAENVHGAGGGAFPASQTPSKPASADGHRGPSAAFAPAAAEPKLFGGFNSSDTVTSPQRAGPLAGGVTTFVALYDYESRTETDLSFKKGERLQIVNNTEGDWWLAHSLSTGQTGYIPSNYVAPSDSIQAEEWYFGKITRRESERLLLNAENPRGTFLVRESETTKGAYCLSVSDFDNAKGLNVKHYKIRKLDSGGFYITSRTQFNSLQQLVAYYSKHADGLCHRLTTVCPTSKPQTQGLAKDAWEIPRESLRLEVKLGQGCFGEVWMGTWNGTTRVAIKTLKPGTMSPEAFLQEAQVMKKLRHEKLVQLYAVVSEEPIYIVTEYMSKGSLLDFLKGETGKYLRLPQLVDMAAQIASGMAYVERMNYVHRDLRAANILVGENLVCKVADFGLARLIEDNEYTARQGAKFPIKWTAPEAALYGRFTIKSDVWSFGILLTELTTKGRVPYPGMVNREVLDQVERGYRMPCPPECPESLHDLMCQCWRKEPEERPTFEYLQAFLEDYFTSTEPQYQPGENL

The test concerns the target Recombinant human c-Src (Homo sapiens (Human), UniProt P12931). Put plainly: Src kinase inhibition in vitro (luciferase-based residual ATP, KinaseGlo). The note with it: ATP 3 μM, PTK2 substrate, 90 minutes at room temperature. The format is biochemical. The method, then: The ability of compounds of the present invention to inhibit the activity of three groups of kinases was tested. Kinases tested included the src family (primarily src and yes), some angiogenic growth factor receptors (Fgfr1, Vegfr, and Pdgfrβ) and the ephrin, EphB4. All kinase reactions were conducted in 96-well plates with a final reaction volume of 50 ul.
After reacting for about 90 minutes at room temperature, residual ATP was determined using a luciferase-based assay (KinaseGlo, Promega Corp.) as a measure of kinase activity. Data from four wells were then averaged and used to determine IC50 values for the test compounds (Prism software package, GraphPad Software, San Diego Calif.).
The test results for inhibition of Src kinase are presented in Table 1, and the test results for inhibition of some other kinases (i.e., Yes, EphB4, and Pdgfrβ) are presented in Table 2.
On the technique in general: Kinase-Glo measures the ATP left after a reaction by luminescence.
As to `Clc1cccc(Cl)c1-c1ccc2nc(Nc3ccc(OCCN4CCCC4)cc3)nnc2c1` [[7-(2,6-dichloro-phenyl)-benzo[1,2,4]triazin-3-yl]-[4-(2-pyrrolidin-1-yl-ethoxy)-phenyl]-amine], the half-inhibitory concentration (IC50) was determined as 121 nM.
To `CCOc1ccc(Nc2nnc3cc(-c4c(C)cccc4C)cc(C)c3n2)cc1` [(4-ethoxy-phenyl)-[7-(2,6-dimethyl-phenyl)-5-methyl-benzo[1,2,4]triazin-3-yl]-amine] belongs 108 nM; to `CNc1cc(-c2c(C)cccc2C)cc2nnc(Nc3ccc(OCCN4CCCC4)cc3)nc12` [7-(2,6-dimethyl-phenyl)-N5-methyl-N3-[4-(2-pyrrolidin-1-yl-ethoxy)-phenyl]-benzo[1,2,4]triazine-3,5-diamine], 10.6 nM.
`Cc1cc(N2CCCCC2)cc2nnc(Nc3cccnc3)nc12` [(5-methyl-7-piperidin-1-yl-benzo[1,2,4]triazin-3-yl)-pyridin-3-yl-amine]: the IC50 was > 10000 nM.
As to `CNc1cccc(-c2cc(C)c3nc(Nc4ccc(S(=O)(=O)NCCN5CCCC5)cc4)nnc3c2)c1` [4-[5-methyl-7-(3-methylamino-phenyl)-benzo[1,2,4]triazin-3-ylamino]-N-(2-pyrrolidin-1-yl-ethyl)-benzenesulfonamide], the IC50 turned out to be 631 nM.
To `Cc1cccc(C)c1-c1cc(C)c2nc(Nc3cccc(Cl)c3)nnc2c1` [(3-chloro-phenyl)-[7-(2,6-dimethyl-phenyl)-5-methyl-benzo[1,2,4]triazin-3-yl]-amine] belongs 134 nM; to `Cc1cc(-c2cccc(NS(C)(=O)=O)c2)cc2nnc(Nc3ccc(S(=O)(=O)NCCN4CCCC4)cc3)nc12` [4-[7-(3-methanesulfonylamino-phenyl)-5-methyl-benzo[1,2,4]triazin-3-ylamino]-N-(2-pyrrolidin-1-yl-ethyl)-benzenesulfonamide], 2900 nM; to `Cc1ccc(Nc2nnc3cc(-c4c(C)cccc4C)cc(C)c3n2)c(C)c1` [(2,4-dimethyl-phenyl)-[7-(2,6-dimethyl-phenyl)-5-methyl-benzo[1,2,4]triazin-3-yl]-amine], > 10000 nM.
To `Cc1cccc(C)c1-c1cc(C)c2nc(Nc3ccc(OCCCN4CCCC4)cc3)nnc2c1` [[7-(2,6-dimethyl-phenyl)-5-methyl-benzo[1,2,4]triazin-3-yl]-{4-(3-pyrrolidin-1-yl-propoxy)-phenyl]-amine] belongs 12.6 nM.
To `Cc1cc2nc(Nc3ccc(S(=O)(=O)NCCN4CCCC4)cc3)nnc2cc1-c1ccccc1` [4-(6-methyl-7-phenyl-benzo[1,2,4]triazin-3-ylamino)-N-(2-pyrrolidin-1-yl-ethyl)-benzenesulfonamide] belongs 315 nM; to `CC(=O)Nc1nnc2cc(-c3c(C)cccc3C)cc(C)c2n1` [N-[7-(2,6-dimethyl-phenyl)-5-methyl-benzo[1,2,4]triazin-3-yl]-acetamide], > 10000 nM.
`COc1ccc(Cl)cc1-c1cc(C)c2nc(Nc3ccc(OCCN4CCCC4)cc3)nnc2c1` [[7-(5-chloro-2-methoxy-phenyl)-5-methyl-benzo[1,2,4]triazin-3-yl]-[4-(2-pyrrolidin-1-yl-ethoxy)-phenyl]-amine]: the IC50 was found to be 1200 nM.
Next, `Cc1ccc(C#N)cc1-c1cc(C)c2nc(Nc3ccc(S(=O)(=O)NCCN4CCCC4)cc3)nnc2c1`: 25.2 nM; `Cc1cccc(C)c1-c1cc(C)c2nc(Nc3ccc(N(C)C)cc3)nnc2c1`: 244 nM.
As for `Cc1cccc(C)c1-c1cc2nnc(Nc3ccccc3)nc2c(C)c1C` [[7-(2,6-dimethyl-phenyl)-5,6-dimethyl-benzo[1,2,4]triazin-3-yl]-phenyl-amine], the IC50 was determined as 130 nM.
On to `Cc1cc(-c2c(O)cccc2Cl)cc2nnc(Nc3ccc(S(=O)(=O)NCCN4CCCC4)cc3)nc12` [4-(7-(2-chloro-6-hydroxyphenyl)-5-methylbenzo[e][1,2,4]triazin-3-ylamino)-N-(2-(pyrrolidin-1-yl)ethyl)benzensulfonamide], for which the IC50 came out at 12.6 nM.
Next, `Cc1cc(-c2cc(OC(=O)c3ccccc3)ccc2Cl)cc2nnc(Nc3ccc(OCCN4CCCC4)cc3)nc12` [Benzoic acid 4-chloro-3-{5-methyl-3-[4-(2-pyrrolidin-1-yl-ethoxy)-phenylamino]-benzo[1,2,4]triazin-7-yl}-phenyl ester]: > 10000 nM; `COc1ccccc1Nc1nnc2cc(-c3c(C)cccc3C)cc(C)c2n1` [(2-methoxy-phenyl)-[7-(2,6-dimethyl-phenyl)-5-methyl-benzo[1,2,4]triazin-3-yl]-amine]: > 100000 nM; `Cc1cc2nc(Nc3ccc(S(=O)(=O)NCCN4CCCC4)cc3)nnc2cc1-c1ccccc1CO` [4-[7-(2-Hydroxymethyl-phenyl)-6-methyl-benzo[1,2,4]triazin-3-ylamino]-N-(2-pyrrolidin-1-yl-ethyl)-benzenesulfonamide]: 72.2 nM.
As to `Cc1cccc(C)c1-c1ccc2nc(Nc3ccc(OCCN4CCCC4)cc3)nnc2c1` [[7-(2,6-dimethyl-phenyl)-benzo[1,2,4]triazin-3-yl]-[4-(2-pyrrolidin-1-yl-ethoxy)-phenyl]-amine], the IC50 amounted to 15 nM.
Next, `COc1cccc(Cl)c1-c1cc(C)c2nc(Nc3ccc(OCCN4CCCC4)cc3)nnc2c1` [[7-(2-chloro-6-methoxy-phenyl)-5-methyl-benzo[1,2,4]triazin-3-yl]-[4-(2-pyrrolidin-1-yl-ethoxy)-phenyl]-amine]: 505 nM.
Next, `Cc1cc(-c2cc(N)ccc2Cl)cc2nnc(Nc3ccc(S(=O)(=O)NCCN4CCCC4)cc3)nc12` [4-[7-(5-amino-2-chloro-phenyl)-5-methyl-benzo[1,2,4]triazin-3-ylamino]-N-(2-pyrrolidin-1-yl-ethyl)-benzenesulfonamide]: 51 nM.
To `Cc1cccc(C)c1-c1cc(C)c2nc(Nc3ccccn3)nnc2c1` [[7-(2,6-dimethyl-phenyl)-5-methyl-benzo[1,2,4]triazin-3-yl]-pyridin-2-yl-amine] belongs > 10000 nM; to `Cc1ccc(C#N)cc1-c1cc2nnc(Nc3ccc(S(=O)(=O)NCCN4CCCC4)cc3)nc2cc1C` [4-[7-(5-Cyano-2-methyl-phenyl)-6-methyl-benzo[1,2,4]triazin-3-ylamino]-N-(2-pyrrolidin-1-yl-ethyl)-benzenesulfonamide], 12.3 nM.
As for `Cc1cccc(Nc2nnc3cc(-c4c(C)cccc4C)cc(C)c3n2)c1C` [(2,3-dimethyl-phenyl)-[7-(2,6-dimethyl-phenyl)-5-methyl-benzo[1,2,4]triazin-3-yl]-amine], the IC50 was > 10000 nM.
To `Cc1noc(C)c1-c1cc(C)c2nc(Nc3ccc(OCCN4CCCC4)cc3)nnc2c1` [[7-(3,5-dimethyl-isoxazol-4-yl)-5-methyl-benzo[1,2,4]triazin-3-yl]-[4-(2-pyrrolidin-1-yl-ethoxy)-phenyl]-amine] belongs 207 nM; to `Cc1cc(C)c(-c2cc(C)c3nc(Nc4ccccc4)nnc3c2)c(C)c1` [[5-methyl-7-(2,4,6-trimethyl-phenyl)-benzo[1,2,4]triazin-3-yl]-phenyl-amine], > 10000 nM; to `CCCCc1ccc(Nc2nnc3cc(-c4c(C)cccc4C)cc(C)c3n2)cc1` [(4-butyl-phenyl)-[7-(2,6-dimethyl-phenyl)-5-methyl-benzo[1,2,4]triazin-3-yl]-amine], > 100000 nM.
